Experimental data reported in PMC8151276, “An Integrated Approach toward NanoBRET Tracers for Analysis of GPCR Ligand Engagement” (Molecules, 2021).

How the values were obtained:
Type in all cases: binding
[1] = biological target: T1, ADORA2B (Homo sapiens, UniProt P29275); assay: NanoBRET screen HiBiT-ADORA2B in HEK293
T1 construct: purchased Promega (in-house HiBiT-GPCR construct library, NanoBRET)
T1 sequence (P29275 1-332): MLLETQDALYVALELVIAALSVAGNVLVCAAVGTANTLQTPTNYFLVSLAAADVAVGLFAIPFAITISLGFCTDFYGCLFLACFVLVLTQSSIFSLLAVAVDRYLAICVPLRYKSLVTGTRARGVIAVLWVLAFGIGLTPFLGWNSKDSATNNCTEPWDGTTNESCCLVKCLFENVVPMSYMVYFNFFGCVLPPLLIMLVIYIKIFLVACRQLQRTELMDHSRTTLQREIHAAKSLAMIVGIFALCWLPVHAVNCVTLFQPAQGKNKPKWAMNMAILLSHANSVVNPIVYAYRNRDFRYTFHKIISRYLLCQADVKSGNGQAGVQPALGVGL
Procedure: (§1) Each tracer candidate was screened across the entire library of HiBiT-GPCR constructs using NanoBRET as the detection modality. As depicted in Figure 4A, the specificity of interactions was evaluated through decrease in BRET due to competitive displacement of a bound tracer by excess parental compound. Each tracer was analyzed for binding to each HiBiT-GPCR fusion in the absence and in the presence of competing parental compound. Briefly, HEK293 cells were transfected with HiBiT-GPCR constructs diluted into promoterless DNA to reduce expression and maximize translocation to the cell surface. Each tracer candidate was then screened at concentrations of 1 μM and 0.1 μM across cells expressing these fusions. Cells were treated for 1.5 h with tracer either alone or in the presence of 20 μM competing parental compound (i.e., control). BRET was measured upon addition of purified LgBiT and subsequent complementation with HiBiT genetically fused to a GPCR. The specificity of interactions was assessed through a decrease in BRET signal due to competitive displacement of the bound tracer. To further gauge the robustness of these interactions, the fold response over the control (i.e., BRETtracer/BRETcontrol) was calculated. We chose a 1.5-fold response, which translates to ≥7-fold signal over noise as the minimal threshold required to score an interaction as positive. […]. Below we highlight the screening results obtained for our exemplary fluorescent tracers based on Clozapine, Amitriptyline and AZD1283.
(§2) HiBiT-GPCR DNA constructs were diluted in 10 mM Tris pH 8 to a final concentration of 0.01 μg/μL, arrayed in 96-well plates and stored at −20 °C. For transfection, HEK293 cells were suspended in Opti-MEM (without phenol red) supplemented with 2% fetal bovine serum (Seradigm) and 100 units/mL penicillin–streptomycin (Gibco) at a final concentration of 220,000 cells/mL and dispensed into white 96-well plates at 90 μL/well. Subsequent transfections and screens were carried using an Agilent Bravo Automated Liquid Handling Platform. First, the 96-well HiBiT DNA arrays were diluted 25-fold in Opti-MEM (without serum or phenol red) to a final concentration of 0.0004 μg/μL and 20 μL of the diluted DNAs were transferred into new 96-well plates. Next, promoterless carrier DNA (1 μg/μL) was diluted 25-fold (0.04 μg/μL) and then dispensed into the diluted arrays at 20 μL/well. Following brief mixing, Viafect transfection reagent (Promega) diluted 16-fold into Opti-MEM was dispensed into the plates at 40 μL/well. After mixing by pipetting, plates were incubated for 10 min on the pipetting station deck. The DNA-transfection reagent complexes were then added to plates containing cells. To facilitate the screen, 10 μL of DNA-transfection reagent complexes were added in duplicates to the top 4 and bottom 4 rows, resulting in two identical 48-well arrays per plate. Plates with transfected cells were incubated for 18–20 h at 37 °C/5% CO2. A screen of each tracer across the entire library using two different concentrations requires duplicate plates of transfected cells. Depending on the number of tracers being screened, transfections can be scaled up using the same ratios. The next day, for each tracer, four 20× screening solutions in tracer dilution buffer (Promega) were prepared: two duplicates at final concentration of 20 μM and two duplicates at a final concentration of 2 μM. A competing unmodified compound was added to one of each duplicate at a final concentration of 400 μM. The four resulting solutions were diluted 4-fold in Opti-MEM without serum or phenol red to generate 5× solutions (5 µM and 0.5 µM tracer +/− 100 μM competing compound). To screen the library, a BioTek MultiFlo FX liquid dispenser was used to dispense 22.5 µL of tracer solution to the top 4 rows and 22.5 µL tracer + competing compound solution to the 4 bottom rows. Plates were briefly mixed on an orbital shaker and incubated for 1.5 h at room temperature. […]

[2] = biological target: T2, AGTR1 (Homo sapiens, UniProt P30556); assay: NanoBRET screen HiBiT-AGTR1 in HEK293
T2 construct: purchased Promega (in-house HiBiT-GPCR construct library, NanoBRET)
T2 sequence (P30556 1-359): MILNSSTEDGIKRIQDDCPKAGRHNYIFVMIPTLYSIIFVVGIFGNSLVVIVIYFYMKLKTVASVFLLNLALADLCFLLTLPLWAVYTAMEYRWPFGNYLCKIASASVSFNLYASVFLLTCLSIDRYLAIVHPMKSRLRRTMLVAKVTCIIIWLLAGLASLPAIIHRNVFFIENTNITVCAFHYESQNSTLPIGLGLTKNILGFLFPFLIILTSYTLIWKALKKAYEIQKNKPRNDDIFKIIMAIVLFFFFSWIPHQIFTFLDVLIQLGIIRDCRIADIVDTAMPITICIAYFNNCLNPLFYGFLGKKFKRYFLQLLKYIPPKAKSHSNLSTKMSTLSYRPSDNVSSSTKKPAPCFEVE
Procedure: as §1, §2

[3] = biological target: T3, CCR4 (Homo sapiens, UniProt P51679); assay: NanoBRET screen HiBiT-CCR4 in HEK293
T3 construct: purchased Promega (in-house HiBiT-GPCR construct library, NanoBRET)
T3 sequence (P51679 1-360): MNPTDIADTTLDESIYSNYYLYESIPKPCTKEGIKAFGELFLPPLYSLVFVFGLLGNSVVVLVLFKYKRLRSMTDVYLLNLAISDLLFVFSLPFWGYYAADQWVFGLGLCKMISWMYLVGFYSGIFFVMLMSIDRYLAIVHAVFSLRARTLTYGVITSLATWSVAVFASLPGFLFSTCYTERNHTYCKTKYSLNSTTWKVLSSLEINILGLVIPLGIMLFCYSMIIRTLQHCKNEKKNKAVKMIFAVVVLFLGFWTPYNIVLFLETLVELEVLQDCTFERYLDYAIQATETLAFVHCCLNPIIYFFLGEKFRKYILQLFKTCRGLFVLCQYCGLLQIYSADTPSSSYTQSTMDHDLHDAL
Procedure: as §1, §2

[4] = biological target: T4, FZD8 (Homo sapiens, UniProt Q9H461); assay: NanoBRET screen HiBiT-FZD8 in HEK293
T4 construct: purchased Promega (in-house HiBiT-GPCR construct library, NanoBRET)
T4 sequence (Q9H461 28-694): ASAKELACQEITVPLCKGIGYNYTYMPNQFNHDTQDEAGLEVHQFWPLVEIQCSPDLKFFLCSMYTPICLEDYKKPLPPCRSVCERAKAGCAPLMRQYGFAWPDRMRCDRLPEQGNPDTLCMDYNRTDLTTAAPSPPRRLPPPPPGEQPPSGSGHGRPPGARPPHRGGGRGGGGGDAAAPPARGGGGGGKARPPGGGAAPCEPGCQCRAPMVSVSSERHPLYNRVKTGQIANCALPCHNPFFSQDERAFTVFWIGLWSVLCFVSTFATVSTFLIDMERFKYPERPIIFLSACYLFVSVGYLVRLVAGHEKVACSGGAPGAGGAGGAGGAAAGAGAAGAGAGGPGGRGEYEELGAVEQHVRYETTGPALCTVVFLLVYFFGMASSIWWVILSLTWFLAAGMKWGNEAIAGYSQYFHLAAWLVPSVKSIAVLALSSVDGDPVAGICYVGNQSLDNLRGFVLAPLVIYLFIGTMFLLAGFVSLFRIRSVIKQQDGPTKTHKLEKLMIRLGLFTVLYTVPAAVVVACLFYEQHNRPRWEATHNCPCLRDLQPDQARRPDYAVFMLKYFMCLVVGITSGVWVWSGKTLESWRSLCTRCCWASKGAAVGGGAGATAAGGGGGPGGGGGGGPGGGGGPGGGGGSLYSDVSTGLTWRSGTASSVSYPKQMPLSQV
Procedure: as §1, §2

[5] = biological target: T5, OPRL1 (Homo sapiens, UniProt P41146); assay: NanoBRET screen HiBiT-OPRL1 in HEK293
T5 construct: purchased Promega (in-house HiBiT-GPCR construct library, NanoBRET)
T5 sequence (P41146 whole entry): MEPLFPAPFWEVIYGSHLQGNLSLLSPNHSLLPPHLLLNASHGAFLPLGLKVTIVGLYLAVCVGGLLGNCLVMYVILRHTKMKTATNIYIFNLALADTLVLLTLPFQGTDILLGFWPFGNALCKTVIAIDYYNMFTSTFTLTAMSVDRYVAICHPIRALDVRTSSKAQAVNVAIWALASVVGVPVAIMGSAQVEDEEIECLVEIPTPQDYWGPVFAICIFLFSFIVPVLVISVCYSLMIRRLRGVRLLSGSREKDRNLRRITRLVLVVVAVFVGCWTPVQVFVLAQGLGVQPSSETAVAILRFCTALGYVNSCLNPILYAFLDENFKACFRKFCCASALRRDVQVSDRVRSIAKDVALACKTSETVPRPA
Procedure: as §1, §2

[6] = biological target: T6, MCHR1 (Homo sapiens, UniProt Q99705); assay: NanoBRET screen HiBiT-MCHR1 in HEK293
T6 construct: purchased Promega (in-house HiBiT-GPCR construct library, NanoBRET)
T6 sequence (Q99705 whole entry): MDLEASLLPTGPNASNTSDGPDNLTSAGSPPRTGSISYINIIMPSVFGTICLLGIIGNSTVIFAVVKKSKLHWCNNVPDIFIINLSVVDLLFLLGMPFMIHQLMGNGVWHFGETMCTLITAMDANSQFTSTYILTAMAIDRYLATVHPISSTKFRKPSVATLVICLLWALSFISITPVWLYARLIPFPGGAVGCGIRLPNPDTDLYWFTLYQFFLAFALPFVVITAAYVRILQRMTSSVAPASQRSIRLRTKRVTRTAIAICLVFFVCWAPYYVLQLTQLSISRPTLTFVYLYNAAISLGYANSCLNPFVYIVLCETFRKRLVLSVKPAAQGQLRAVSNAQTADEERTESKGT
Procedure: as §1, §2

## CN1CCN(C2=Nc3cc(Cl)ccc3N(CC(=O)NCCOCCOCCOCCOCCNC(=O)CCc3ccc4n3[B-](F)(F)[N+]3=C(c5ccc[nH]5)C=CC3=C4)c3ccccc32)CC1 [Clozapine-c-2-NB590]
[1]; ADORA2B, 0.1μM tracer
  NanoBRET Fold Response: 1.07
[1]; ADORA2B, 1μM tracer
  NanoBRET Fold Response: 0.91
[2]; AGTR1, 0.1μM tracer
  NanoBRET Fold Response: 0.98
[2]; AGTR1, 1μM tracer
  NanoBRET Fold Response: 0.93
[3]; CCR4, 0.1μM tracer
  NanoBRET Fold Response: 0.97
[3]; CCR4, 1μM tracer
  NanoBRET Fold Response: 0.72
[4]; FZD8, 0.1μM tracer
  NanoBRET Fold Response: 0.97
[4]; FZD8, 1μM tracer
  NanoBRET Fold Response: 1.04
[5]; OPRL1, 0.1μM tracer
  NanoBRET Fold Response: 0.98
[5]; OPRL1, 1μM tracer
  NanoBRET Fold Response: 0.99
[6]; MCHR1, 0.1μM tracer
  NanoBRET Fold Response: 1.00
[6]; MCHR1, 1μM tracer
  NanoBRET Fold Response: 0.93

## Cc1nc2n(c(=O)c1CCN1CCC(c3noc4cc(F)ccc34)CC1)CCCC2OC(=O)NCCOCCOCCOCCOCCNC(=O)CCc1ccc2n1[B-](F)(F)[N+]1=C(c3ccc[nH]3)C=CC1=C2 (stereo not shown) [Risperidone-2-NB590]
[1]; ADORA2B, tracer 0.1μM
  NanoBRET Fold Response: 0.94
[1]; ADORA2B, tracer 1μM
  NanoBRET Fold Response: 1.05
[2]; AGTR1, tracer 0.1μM
  NanoBRET Fold Response: 0.99
[2]; AGTR1, tracer 1μM
  NanoBRET Fold Response: 0.98
[3]; CCR4, tracer 0.1μM
  NanoBRET Fold Response: 1.01
[3]; CCR4, tracer 1μM
  NanoBRET Fold Response: 1.22
[4]; FZD8, tracer 0.1μM
  NanoBRET Fold Response: 1.02
[4]; FZD8, tracer 1μM
  NanoBRET Fold Response: 1.12
[5]; OPRL1, tracer 0.1μM
  NanoBRET Fold Response: 0.97
[5]; OPRL1, tracer 1μM
  NanoBRET Fold Response: 0.96
[6]; MCHR1, tracer 0.1μM
  NanoBRET Fold Response: 0.94
[6]; MCHR1, tracer 1μM
  NanoBRET Fold Response: 0.97

## COc1ccc2[nH]c(-c3ccc(CNC(=O)CCOCCOCCOCCOCCNC(=O)CCc4ccc5n4[B-](F)(F)[N+]4=C(c6ccc[nH]6)C=CC4=C5)cc3)c(CCNC(C)=O)c2n1 [AzomelatoninICO9-2-NB590]
[1]; 0.1μM tracer
  NanoBRET Fold Response: 0.82
[1]; 1μM tracer
  NanoBRET Fold Response: 1.21
[2]; 0.1μM tracer
  NanoBRET Fold Response: 0.91
[2]; 1μM tracer
  NanoBRET Fold Response: 0.94
[3]; 0.1μM tracer
  NanoBRET Fold Response: 1.23
[3]; 1μM tracer
  NanoBRET Fold Response: 0.96
[4]; 0.1μM tracer
  NanoBRET Fold Response: 0.91
[4]; 1μM tracer
  NanoBRET Fold Response: 1.03
[5]; 0.1μM tracer
  NanoBRET Fold Response: 0.71
[5]; 1μM tracer
  NanoBRET Fold Response: 1.05
[6]; 0.1μM tracer
  NanoBRET Fold Response: 1.38
[6]; 1μM tracer
  NanoBRET Fold Response: 0.88

## COc1ccccc1N1CCN(CCCCN2C(=O)c3ccc(CNC(=O)CCOCCOCCOCCOCCNC(=O)CCc4ccc5n4[B-](F)(F)[N+]4=C(c6ccc[nH]6)C=CC4=C5)cc3C2=O)CC1 [NAN-190-2-NB590]
[1]; ADORA2B, tracer 0.1μM
  NanoBRET Fold Response: 0.94
[1]; ADORA2B, tracer 1μM
  NanoBRET Fold Response: 0.64
[2]; AGTR1, tracer 0.1μM
  NanoBRET Fold Response: 1.04
[2]; AGTR1, tracer 1μM
  NanoBRET Fold Response: 1.11
[3]; CCR4, tracer 0.1μM
  NanoBRET Fold Response: 0.98
[3]; CCR4, tracer 1μM
  NanoBRET Fold Response: 1.12
[4]; FZD8, tracer 0.1μM
  NanoBRET Fold Response: 0.95
[4]; FZD8, tracer 1μM
  NanoBRET Fold Response: 1.03
[5]; OPRL1, tracer 0.1μM
  NanoBRET Fold Response: 0.97
[6]; MCHR1, tracer 1μM
  NanoBRET Fold Response: 0.93
